Test results: paper PMC7203153, “Rational identification and characterisation of peptide ligands for targeting polysialic acid” (Scientific Reports, 2020)
Marks after values point to notes of the source that are not given here. Where a SMILES comes first, the peptide text is derived from it.

Experiment: Competitive microarray selectivity screening with α-2,8/9-PSA
Type: binding, Escherichia coli
Conditions: 10% competing α-2,8/9-PSA
Description: Competitive microarray screening with α-2,8/9-PSA was conducted in order to assess selective binding of peptides to α-2,8-PSA. The definition of percent selectivity at 10% competing glycan was applied to enable selectivity comparisons amongst a larger set of peptides[25] […] However, the use of an isomeric polymer is a more stringent assessment of selectivity; here, selective binding is guided by three-dimensional conformation and not additionally by differences in functional groups.
Peptide library synthesis, microarray preparation, and microarray screening were performed as described previously[25] with the following specifications. Siglec-related sequences were N-terminally acetylated to match the charge of the corresponding protein fragment. All peptides were printed in triplicate (60 nL spots), and each initial affinity screening was carried out at least three times. Screening was conducted with 10 μM colominic acid (CA; 5 mL per microarray), the Escherichia coli homolog of α-2,8-PSA identical in structure to human-derived PSA[67], and with antibody-based chemiluminescent detection of CA. For selectivity screening, microarrays were challenged with 10 μM CA with 0, 0.1, 1, and 10 μM α-2,8/9-PSA in separate conditions (5 mL total volume each), where molar concentrations were based on molecular weight estimation of synthesized 2,8/9-PSA (details on α-2,8/9-PSA production, purification, and analysis are provided in Supplementary Information). Selectivity screening with monomeric sialic acid was conducted with mass and molar equivalents of N-acetylneuraminic acid (Rose Scientific, Ltd.) along with 10 μM CA (5 mL total volume each). The mass equivalent amount of sialic acid (specifically, 970 μM sialic acid for a given volume of 10 μM CA) was calculated for CA of an average degree of polymerization of 100. For study of pH-dependent binding, affinity screening with CA was performed using PBS buffers of pH 6.0, 7.0, 7.4, and 8.0 (10 mM phosphate, 100 mM NaCl). The impact of NaCl on peptide binding was assessed at pH 7.4 with 0, 100, and 200 mM NaCl. […]

CC(=O)N[C@@H](Cc1ccccc1)C(=O)N[C@@H](CCCCN)C(=O)NCC(=O)N[C@@H](CCCNC(=N)N)C(=O)N[C@H](C(=O)N[C@@H](CO)C(=O)N1CCC[C@H]1C(=O)N[C@@H](CCCCN)C(=O)N[C@H](C(=O)NCC(=O)N[C@@H](C)C(=O)N1CCC[C@H]1C(=O)N[C@H](C(=O)N[C@@H](C)C(=O)N[C@H](C(N)=O)[C@@H](C)O)C(C)C)[C@@H](C)O)[C@@H](C)O [I-P24] (Ac-FKGRTSPKTGAPVAT-NH2)
selectivity mark in Table 1: I-P24* (Peptides with selectivity >80%)
